Test results as given in the OPERA property sets (Mansouri et al. 2018).

Conditions: not given

Compound | boiling point [°C] | melting point [°C] | log10 Koa | log10 vapour pressure (mmHg) | ready biodegradability | log10 Koc (L/kg) | log10 Henry constant (atm·m³/mol) | log10 biodegradation half-life (days)
O=C1CCCC1C1CCCC1 (stereo not drawn) | 232 | -13 | – | – | – | – | – | –
O=[N+]([O-])c1ccc(F)c([N+](=O)[O-])c1 | 296 | 25.8 | – | – | – | – | – | –
CCCCC(C)C(C)(C)C (stereo not drawn) | 158 | – | – | – | – | – | – | –
COC(=O)c1cccc(C)c1O | 235 | 29 | – | – | – | – | – | –
C[C@]12CC[C@@H](O)C[C@@H]1CC[C@@H]1[C@@H]2CC[C@]2(C)C(=O)CC[C@@H]12 | – | 182 | – | – | – | – | – | –
OC1CCCCCCCCCCCCCC1 | – | 80.5 | – | – | – | – | – | –
CC(C)C#N | 104 | -71.5 | 2.87 | 1.51 | readily biodegradable | – | – | –
c1ccc2nsnc2c1 | 203 | 43 | – | – | – | – | – | –
Brc1cc(Br)c(Br)c(Oc2ccc(Br)c(Br)c2Br)c1 | – | – | – | – | not readily biodegradable | – | – | –
CCCCC(CC)COC(=O)CCCCCCCCC(=O)OCC(CC)CCCC (stereo not drawn) | – | -48 | – | – | – | – | – | –
CCOc1ccc(O)cc1 | 246 | 66.5 | – | – | – | – | – | –
CCCCC(CC)COP(=O)(O)CC(CC)CCCC (stereo not drawn) | – | – | – | – | not readily biodegradable | – | – | –
CCCCOCCOCCOCCCC | 256 | -60 | – | -1.58 | – | – | – | –
C[N+](C)(C)CC(=O)O.[Cl-] | – | 242 | – | – | – | – | – | –
C=C1CCC2CC1C2(C)C (stereo not drawn) | 166 | -61.2 | – | 0.467 | – | – | – | –
Oc1ccc(Cl)c(Cl)c1 | 253 | 68 | – | – | not readily biodegradable | 3.09 | – | –
ClC(Cl)(Cl)Br | 105 | -5.7 | – | 1.59 | – | – | – | –
CCc1cccc(C)c1N(COC(C)C)C(=O)CCl | – | 21.6 | – | -4.52 | – | – | – | –
Cc1c2ccccc2nc2ccccc12 | – | 118 | – | – | – | – | – | –
Cc1cc(C)n(-c2ccccc2)n1 | 273 | – | – | – | – | – | – | –
CC(C)(C)c1cccc(O)c1 | 240 | 42.3 | – | -1.7 | not readily biodegradable | – | – | –
FC(F)(F)C(F)(I)C(F)(F)F | 40 | – | – | – | – | – | – | –
NC(=O)c1ccc([N+](=O)[O-])cc1 | – | 200 | – | – | – | 1.93 | – | –
CCCC/C=C\CCCCCCCCCC=O | 250 | – | – | – | – | – | – | –
CN(C)c1ccc(N=Nc2ccccc2)cc1 | – | 117 | – | -7.15 | – | 3.87 | – | –
COc1ccco1 | 110 | – | – | – | – | – | – | –

Compound | boiling point [°C] | melting point [°C] | log10 Koa | log10 vapour pressure (mmHg) | ready biodegradability | log10 Koc (L/kg) | log10 Henry constant (atm·m³/mol) | log10 biodegradation half-life (days)
O=C(O)CCBr | – | 62.5 | – | – | – | – | – | –
CNC(=O)Oc1cccc(N=CN(C)C)c1.Cl | – | – | – | -7.92 | – | – | – | –
CC(=O)OCC(=O)[C@H]1CC[C@H]2[C@@H]3CCC4=CC(=O)CC[C@]4(C)[C@H]3CC[C@]12C | – | 157 | – | – | – | – | – | –
Cc1c(F)c(F)c(C)c(F)c1F | 144 | 36 | – | – | – | – | – | –
CCN(CCO)CCO | 247 | -50 | – | – | not readily biodegradable | – | – | –
CCC(Oc1c(I)cc(I)cc1I)C(=O)O (stereo not drawn) | – | 124 | – | – | – | – | – | –
C1CCC(CCCCC2CCCCC2)CC1 | 305 | 12 | – | – | – | – | – | –
CCCCCC1C(=O)CCC1CC(=O)OC (stereo not drawn) | – | -10 | – | – | readily biodegradable | – | – | –
CCCCCCCCCC[N+](C)(C)Cc1ccccc1 | – | – | – | – | not readily biodegradable | – | – | –
Cc1c(F)cccc1Cl | 154 | – | – | – | – | – | – | –
O=C(c1ccccc1)c1ccc(O)cc1O | – | 144 | – | – | not readily biodegradable | – | – | –
ClC1=C(Cl)[C@]2(Cl)[C@H]3[C@H]([C@@H]4O[C@]4(Cl)[C@@H]3Cl)[C@@]1(Cl)C2(Cl)Cl (mixture of isomers) | 353 | 144 | 8.39 | – | – | – | – | –
Cc1cc(Br)ccc1O | 235 | 64.7 | – | – | – | – | – | –
Cc1cc(NS(=O)(=O)c2ccc(N)cc2)nc(C)n1 | – | 243 | – | – | – | – | – | –
CC(O)[C@H]1CC[C@H]2[C@@H]3CC[C@@H]4C[C@@H](O)CC[C@]4(C)[C@H]3CC[C@]12C (stereo partly drawn) | – | 244 | – | – | – | – | – | –
CCN1C(=O)c2ccccc2C1Nc1ccc(OCCN2CCCCC2)cc1 (stereo not drawn) | – | 106 | – | – | – | – | – | –
O=C(Nc1ccc(Cl)cc1)c1cc(Br)ccc1O | – | 240 | – | – | – | – | – | –
OCC(F)(F)F | 74 | -43.5 | – | 1.85 | – | – | -4.76 | –
O=C(NCO)c1cccnc1 | – | 142 | – | – | – | – | – | –
CCCCCC(=O)CC | 168 | – | – | 0.301 | – | – | – | –
c1ccc2cc3c(ccc4ccccc43)cc2c1 | 438 | – | – | -6.68 | not readily biodegradable | 5.3 | -4.92 | 2.46
CCCCCCC(C)Nc1ccc(Nc2ccccc2)cc1 (stereo not drawn) | – | – | – | – | not readily biodegradable | – | – | –
[C-]#[N+]C | 59.6 | -45 | – | – | – | – | – | –
COC(=O)c1cc(OC)c(OC)c(OC)c1 | 274 | 83 | – | – | – | – | – | –
O=C(O)COc1ccc(Cl)cc1Cl | – | 140 | – | -4.08 | not readily biodegradable | 1.66 | – | –

Same assay, conditions: fish

Compound | log10 biotransformation half-life (days) | log10 BCF
Clc1ccc(-c2c(Cl)cccc2Cl)c(Cl)c1 | 2.47 | –
c1ccc2c(c1)Nc1ccccc1S2 | 0.04 | 2.55
O=C(Nc1ccc(Cl)c(Cl)c1)Nc1cc(Cl)ccc1Oc1ccc(Cl)cc1S(=O)(=O)O | – | 1.87
Nc1ccncc1 | – | 0.66
Oc1ccc(Cl)c(Cl)c1 | -0.92 | 1.69
c1ccc2cc3c(ccc4ccccc43)cc2c1 | 0.02 | 2.41
